According to patent publication US20090098044A1, “SOLID PARTICLES FROM CONTROLLED DESTABILISATION OF MICROEMULSIONS” (Australian Nuclear Science and Technology Organisation, priority 2004, published 2009):

Legend:
Assay type in all cases: physicochemical
[1] = Decomposition of pure doxorubicin in PBS (pH 6.9/25° C.) at 37° C.; conditions: normal phosphate buffer
[2] = Decomposition of doxorubicin at pH 7.4 versus pH<4
Excerpt: The decomposition rate of doxorubicin at physiological pH (pH 7.4) versus its decomposition rate at pH<4 makes analysis of the system difficult.

[3] = Solubility of the drug

## COc1cccc2c1C(=O)c1c(O)c3c(c(O)c1C2=O)C[C@@](O)(C(=O)CO)C[C@@H]3O[C@H]1C[C@H](N)[C@H](O)[C@H](C)O1 [doxorubicin]
[1]; in 2 weeks
  doxorubicin disappears: about 74%
[1]; phosphate buffer (PBS), pH 6.9, exponential decomposition during first ten days, read-out: half decay (T1/2) of doxorubicin (converted)
  half-life: ~108 h
[2]; known concentration of doxorubicin, FIG. 44
  decomposition of doxorubicin at pH 7.4 compared with pH<4: increased decomposition at physiological pH
[2]; pH<4 (pH ~3.4)
  stability of doxorubicin as a function of pH: most stable at this pH
[3]; acetone
  solubility of doxorubicin in acetone: high solubility
[3]; aqueous solutions, orange precipitate seen after day 9
  solubility of doxorubicin in aqueous solutions: limited solubility
